Test results: patent publication US20240067668A1, “HETEROARYL DERIVATIVE COMPOUND AND USE THEREOF” (VORONOI INC., priority 2020, published 2024)

Experiments:
[1] = molecular target: EGFR Del19/T790M/C797S (Homo sapiens, UniProt P00533, C797S/T790M, form not given); assay: Enzyme IC50, EGFR Del19/T790M/C797S; assay type: biochemical
[2] = test system: BaF3-EGFR (Del19/T790M/C797S) cells; assay: Inhibitory activity on Ba/F3 cell proliferation (CellTiter-Glo, 72 hours); assay type: cell-based; conditions: Ba/F3 cells expressing EGFR Del19/T790M/C797S
Procedure, shortened: (§1)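 Ba/F3 cells expressing wild-type EGFR or EGFR Del19/T790M/C797S, 3×10^3 per well, exposed 72 h at 37 °C to compound at 12 threefold dilutions, 0.00005-10 μM final. Viability by CellTiter-Glo 2.0; GI50 derived from growth relative to DMSO-treated cells.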

[3] = test system: BaF3-EGFR (WT) cells; assay: as above; assay type: cell-based; conditions: Ba/F3 cells expressing EGFR WT
Procedure, shortened: as §1

EGFR Del19/T790M/C797S, sequence (P00533 25-1210 T790M/C797S, form open): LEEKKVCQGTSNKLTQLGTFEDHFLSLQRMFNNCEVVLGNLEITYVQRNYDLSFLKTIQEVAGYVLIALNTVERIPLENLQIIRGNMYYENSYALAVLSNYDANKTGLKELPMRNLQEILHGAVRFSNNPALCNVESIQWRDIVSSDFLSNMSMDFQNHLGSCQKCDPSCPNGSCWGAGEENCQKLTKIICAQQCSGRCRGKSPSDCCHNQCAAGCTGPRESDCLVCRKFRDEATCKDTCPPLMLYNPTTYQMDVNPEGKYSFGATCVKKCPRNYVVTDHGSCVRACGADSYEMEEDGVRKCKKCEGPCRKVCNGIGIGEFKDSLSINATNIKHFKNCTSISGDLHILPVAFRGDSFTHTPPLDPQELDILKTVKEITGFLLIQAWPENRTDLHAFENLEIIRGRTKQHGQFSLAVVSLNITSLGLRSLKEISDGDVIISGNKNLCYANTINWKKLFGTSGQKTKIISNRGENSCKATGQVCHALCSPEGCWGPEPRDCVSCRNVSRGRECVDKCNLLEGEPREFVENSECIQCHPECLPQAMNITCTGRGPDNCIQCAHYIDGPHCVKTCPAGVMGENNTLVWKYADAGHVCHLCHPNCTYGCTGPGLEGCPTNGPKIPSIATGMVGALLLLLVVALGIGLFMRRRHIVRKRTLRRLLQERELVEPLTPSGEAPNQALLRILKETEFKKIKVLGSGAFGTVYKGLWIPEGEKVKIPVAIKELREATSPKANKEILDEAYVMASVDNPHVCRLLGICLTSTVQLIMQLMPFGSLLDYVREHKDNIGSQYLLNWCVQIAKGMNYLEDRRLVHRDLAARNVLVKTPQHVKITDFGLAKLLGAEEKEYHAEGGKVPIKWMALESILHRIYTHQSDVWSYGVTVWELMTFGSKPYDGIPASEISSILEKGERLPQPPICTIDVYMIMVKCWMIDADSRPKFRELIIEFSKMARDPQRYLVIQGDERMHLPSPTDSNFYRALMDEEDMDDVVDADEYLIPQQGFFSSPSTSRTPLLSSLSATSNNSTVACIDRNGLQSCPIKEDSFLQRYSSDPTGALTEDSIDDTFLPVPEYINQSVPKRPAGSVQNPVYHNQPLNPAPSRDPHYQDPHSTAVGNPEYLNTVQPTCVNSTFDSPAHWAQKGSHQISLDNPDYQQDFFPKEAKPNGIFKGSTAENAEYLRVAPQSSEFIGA

IC50 [1] [µM] | GI50 [2] [µM] | GI50 [3] [µM] | Structure (SMILES)
0.05 to 0.1 | > 0.1 | 0.05 to 0.1 | Cn1cc(-c2ccc(OCC(F)(F)F)c(Nc3nc(Nc4ccc5nccnc5c4P(C)(C)=O)c4cc[nH]c4n3)c2)cn1 [Example 5, dimethyl (6-((2-((5-(1-methyl-1H-pyrazol-4-yl)-2-(2,2,2-trifluoroethoxy)phenyl)amino)-7H-pyrrolo[2,3-d]pyrimidin-4-yl)amino)quinoxalin-5-yl)phosphine oxide]
≤ 0.05 | 0.05 to 0.1 | > 0.1 | COc1cc(N2CCN(C)CC2)c(-c2cnn(C3CC3)c2)cc1Nc1nc(Nc2ccc3nccnc3c2P(C)(C)=O)c2cc[nH]c2n1 [Example 115, (6-((2-((5-(1-cyclopropyl-1H-pyrazol-4-yl)-2-methoxy-4-(4-methylpiperazin-1-yl)phenyl)amino)-7H-pyrrolo[2,3-d]pyrimidin-4-yl)amino)quinoxalin-5-yl)dimethyl-phosphine oxide]
≤ 0.05 | ≤ 0.05 | > 0.1 | COc1cc(N2CCN(C)CC2)c(-c2cnn(C(F)F)c2)cc1Nc1nc(Nc2ccc3nccnc3c2P(C)(C)=O)c2cc[nH]c2n1 [Example 50, (6-((2-((5-(1-(difluoromethyl)-1H-pyrazol-4-yl)-2-methoxy-4-(4-methyl-piperazin-1-yl)phenyl)amino)-7H-pyrrolo[2,3-d]pyrimidin-4-yl)amino)quinoxalin-5-yl)dimethyl-phosphine oxide]
≤ 0.05 | > 0.1 | > 0.1 | COc1ccc(C)cc1Nc1nc(Nc2ccc3nccnc3c2P(C)(C)=O)c2cc[nH]c2n1 [Example 68, (6-((2-((2-methoxy-5-methylphenyl)amino)-7H-pyrrolo[2,3-d]pyrimidin-4-yl)amino)quinoxalin-5-yl)dimethyl-phosphine oxide]
≤ 0.05 | > 0.1 | > 0.1 | Cn1cc(-c2cc(Nc3nc(Nc4ccc5nccnc5c4P(C)(C)=O)c4cc[nH]c4n3)c(OCC(F)(F)F)cc2F)cn1 [Example 3, (6-((2-((4-fluoro-5-(1-methyl-1H-pyrazol-4-yl)-2-(2,2,2-trifluoroethoxy)phenyl)amino)-7H-pyrrolo[2,3-d]pyrimidin-4-yl)amino)quinoxalin-5-yl) dimethyl-phosphine oxide]
≤ 0.05 | ≤ 0.05 | > 0.1 | COc1cc(N2C[C@H]3CC[C@@H](C2)O3)c(-c2cnn(C)c2)cc1Nc1nc(Nc2ccc3nccnc3c2P(C)(C)=O)c2cc[nH]c2n1 [Example 30, (6-((2-((4-((1R,5S)-8-oxa-3-azabicyclo [3.2.1]octan-3-yl)-2-methoxy-5-(1-methyl-1H-pyrazol-4-yl)phenyl)amino)-7H-pyrrolo[2,3-d]pyrimidin-4-yl)amino)quinoxalin-5-yl)dimethyl-phosphine oxide]
≤ 0.05 | ≤ 0.05 | > 0.1 | COc1cc(N2CCOCC2)c(-c2cnn(C)c2)cc1Nc1nc(Nc2ccc3nccnc3c2P(C)(C)=O)c2cc[nH]c2n1 [Example 25, (6-((2-((2-methoxy-5-(1-methyl-1H-pyrazol-4-yl)-4-morpholino-phenyl)amino)-7H-pyrrolo[2,3-d]pyrimidin-4-yl)amino)quinoxalin-5-yl)dimethyl-phosphine oxide]
≤ 0.05 | > 0.1 | 0.05 to 0.1 | CP(C)(=O)c1c(Nc2nc(Nc3cc([N+](=O)[O-])c(N4CCC(N5CCN(C6CC6)CC5)CC4)c4c3OCCO4)nc3[nH]ccc23)ccc2nccnc12 [Example 134, (6-((2-((8-(4-(4-cyclopropyl-piperazin-1-yl)piperidin-1-yl)-7-nitro-2,3-dihydrobenzo [b][1,4]dioxin-5-yl)amino)-7H-pyrrolo[2,3-d]pyrimidin-4-yl)amino)quinoxalin-5-yl)dimethyl-phosphine oxide]
≤ 0.05 | ≤ 0.05 | > 0.1 | Cn1cc(-c2cc(Nc3nc(Nc4ccc5nccnc5c4P(C)(C)=O)c4cc[nH]c4n3)c(OCC(F)(F)F)cc2N2CCC(N3CCOCC3)CC2)cn1 [Example 6, dimethyl (6-((2-((5-(1-methyl-1H-pyrazol-4-yl)-4-(4-morpholino-piperidin-1-yl)-2-(2,2,2-trifluoroethoxy)phenyl)amino)-7H-pyrrolo[2,3-d]pyrimidin-4-yl)amino)quinoxalin-5-yl)phosphine oxide]
≤ 0.05 | ≤ 0.05 | > 0.1 | CCn1cc(-c2cc(Nc3nc(Nc4ccc5nccnc5c4P(C)(C)=O)c4cc[nH]c4n3)c(OC)cc2N2CCN(C)CC2)cn1 [Example 47, (6-((2-((5-(1-ethyl-1H-pyrazol-4-yl)-2-methoxy-4-(4-methyl-piperazin-1-yl)phenyl)amino)-7H-pyrrolo[2,3-d]pyrimidin-4-yl)amino)quinoxalin-5-yl)dimethyl-phosphine oxide]
≤ 0.05 | ≤ 0.05 | > 0.1 | CCc1cc(Nc2nc(Nc3ccc4nccnc4c3P(C)(C)=O)c3cc[nH]c3n2)c(OC)cc1N1CCC(N2CCN(C)CC2)CC1 [Example 55, (6-((2-((5-ethyl-2-methoxy-4-(4-(4-methylpiperazin-1-yl)piperidin-1-yl)phenyl)amino)-7H-pyrrolo[2,3-d]pyrimidin-4-yl)amino)quinoxalin-5-yl)dimethyl-phosphine oxide]
≤ 0.05 | > 0.1 | > 0.1 | CCN1CCN(c2cc(OC)c(Nc3nc(Nc4ccc5nccnc5c4P(C)(C)=O)c4cc[nH]c4n3)cc2-c2cnn(C(C)C)c2)CC1 [Example 48, (6-((2-((4-(4-ethylpiperazin-1-yl)-5-(1-isopropyl-1H-pyrazol-4-yl)-2-methoxyphenyl)amino)-7H-pyrrolo[2,3-d]pyrimidin-4-yl)amino)quinoxalin-5-yl)dimethyl-phosphine oxide]
0.05 to 0.1 | ≤ 0.05 | > 0.1 | COc1cc(N2CCN(C(=O)C3(F)CC3)CC2)c(-c2cnn(C)c2)cc1Nc1nc(Nc2ccc3nccnc3c2P(C)(C)=O)c2cc[nH]c2n1 [Example 112, (4-(4-((4-((5-(dimethyl-phosphoryl)quinoxalin-6-yl)amino)-7H-pyrrolo[2,3-d]pyrimidin-2-yl)amino)-5-methoxy-2-(1-methyl-1H-pyrazol-4-yl)phenyl)piperazin-1-yl)(1-fluorocyclo-propyl) methanone]
